Experimental findings from patent US20060286032A1, “A radiosotope-chitosan complex for treatment of prostate cancer” (priority 2003, published 2006) are described below.

Series [1] can be described thus: Autoradiography, complex solution versus ^166Ho(NO3)3.5H2O solution not containing chitosan, injected into the prostate gland. Format: in vivo, rats. The conditions noted are these: for Radioactive concentration, Administration site / Radioactive concentration, End region of femur / Radioactive concentration, Liver / Radioactive concentration, Spine / Radioactive concentration, Spleen / Radioactive concentration, Kidney: 25 μl (about 100 μCi); for Radioactivity retained in the administration site, the prostate gland: 24 hrs after being administered. Here is the method:
To investigate advantages of the ^166Ho-chitosan complex, autoradiography was carried out for a group administered with the complex solution and a control group administered with a ^166Ho(NO3)3.5H2O solution not containing chitosan. In the complex solution administration group, 25 μl of the complex solution was administered, which was equal to about 100 μCi. The control group was administered with a ^166Ho(NO3)3.5H2O solution not containing chitosan with the same dosage and radioactive concentration as in the complex solution administration group. This test was carried out according to the same method as in Experimental Example 1, and each test drug was administered to the prostate gland. After 0.5, 2, 6 and 24 hrs, rats were sacrificed and evaluated by autoradiography. The measured radioactive concentrations (% ID/g) in various organs after injection of the complex solution and the ^166Ho(NO3)3.5H2O solution are given in Table 2, below.

For series [2], the system named is AIT prostate carcinoma cells. The series is described as follows: Antitumor effect in orthotopic tumor model, AIT transplanted into the prostate gland. Format: in vivo, noble rats. The conditions noted are these: non-radioactive complex group. Here is the method:
In addition to the subcutaneous tumor model tested in Experimental Example 6, the antitumor effect and side effects of the complex solution was examined in an orthotopic tumor model where AIT prostate carcinoma cells had been directly transplanted into the prostate gland. AIT cells were cultured in 10% FBS-containing DMEM at 37° under 5% CO2. The cultured carcinoma cells were suspended in sterile physiological saline at a density of 2×10^6 cells/0.05 ml. After noble rats were anesthetized with fentanyl and the abdomen was opened, 2×10^6 cells per rat were transplanted into the prostate gland of the rats. Seven days after carcinoma transplantation, the rats were randomly allocated. The kit prepared in Example 2 was used as a test drug, and 0.05 ml of the kit was administered. The rats were divided into four groups: a control group (no treatment); two administration groups administered with 0.5 mCi and 1.0 mCi of the complex solution; and another administration group administered with a non-radioactive complex solution (Holmium-165 (^165Ho)-chitosan complex solution). Two and four weeks after administration of the complex solution, the rats were sacrificed, and tumors were excised from the rats and weighed.

The test system of series [3] is DU-145 carcinoma cell line (hormone-independent prostate carcinoma cell line). The series is described as follows: Antitumor effect in DU-145 subcutaneous tumor model, intratumoral injection. Format: in vivo, nude mice. As to conditions: for Tumor volume after injection / Tumor growth inhibition rate: non-radioactive complex group; for Tumor volume after injection: 0.2 ml intratumoral; for Tumor growth inhibition rate: last day of the test (2 wks), tumor volume vs control. The procedure: To investigate the effect of the complex on hormone-independent prostate cancer, a DU-145 carcinoma cell line (hormone-independent prostate carcinoma cell line), which is rarely produces prostate-specific antigen, was transplanted into nude mice and the antitumor effect of the complex was evaluated.
The DU-145 cells were cultured in 10% FBS (fetal bovine serum)-containing F-12K(Kaign's Modification of Ham's F-12 medium) in a 5% CO2 incubator at 37° C., and 2×10^5 cells/0.2 ml/head were subcutaneously transplanted into the lumbar portion of male 6-week nude mice. When the long axis of the tumor was about 1 cm long, the complex solution was intratumorally injected. The administration volume of the test drug was 0.2 ml. The mice were divided into four groups: a control group (no treatment); two administration groups administered with the complex solution at doses of 10 mCi and 20 mCi per 1 cm^3 tumor; and another administration group administered with a non-radioactive complex solution [Holmium-165 (^165Ho)-chitosan complex solution]. Two weeks after administration with the complex solution, the mice were histopathologically examined to evaluate the antitumor effect and toxicity to major organs of the complex.

The nature of series [4]: Histopathological examination of organs of rats of the orthotopic model (hematoxylin and eosin). The conditions noted are these: last day of the test. It is filed as in vivo, noble rats. The text has this:
From all rats tested in Experimental Example 7, which were sacrificed on the last day of the test, the heart, lung, liver, kidney, spleen, testes, epididymis, seminal vesicle, bladder, rectum and tumor tissues were excised, embedded in paraffin according to general tissue processing, and sectioned into a thickness of 3 μm. The tissue sections were subjected to double staining with hematoxylin and eosin and histopathologically examined.

Series [5] relates to AIT carcinoma (androgen-independent carcinoma cell line). The series can be described thus: Antitumor effect in AIT subcutaneous tumor model. Format: in vivo, noble rats. As to conditions: non-radioactive complex group; for Tumor growth inhibition rate: four weeks, tumor weight vs control. Here is the method:
To evaluate the effect of the complex on hormone-independent prostate cancer, an AIT carcinoma (androgen-independent carcinoma cell line) was transplanted into noble rats, and the antitumor effect of the complex was examined.
An androgen-independent, prostate carcinoma cell line, AIT, which is derived from noble rats, was cultured in 10% FBS-containing DMEM at 37° under 5% CO2. The cultured carcinoma cells were suspended in sterile physiological saline at a density of 4×10^6 cells/ml, and 2×10^6 cells were subcutaneously transplanted into the lateral abdomen of male 5-week noble rats. When the long axis of the tumor was about 1 cm long (in this test, 14 days after transplantation), the rats were grouped according to the tumor mass. The kit prepared in Example 2 was used as a test drug, and was administered at the same dose as in Experimental Example 5, that is, 0.2 ml. The rats were divided into four groups: a control group (no treatment); two administration groups administered with the complex solution at 10 mCi and 20 mCi per 1 cm^3 tumor; and another administration group administered with a non-radioactive complex solution (Holmium-165 (^165Ho)-chitosan complex solution). Four weeks after administration with the complex solution, tumors were excised from the rats, and tumor growth inhibition rates were measured by weighing the tumors.

Setting [6] is: listed as non-radioactive complex solution.

Marks after values point to notes of the source that are not given here.

`O.O.O.O.O.O=[N+]([O-])[O-].O=[N+]([O-])[O-].O=[N+]([O-])[O-].[166Ho+3]` [^166Ho, ^166Ho(NO3)3.5H2O]: in series [1] (30 min), the “Radioactive concentration, Administration site” value was found to be 4532 ± 513.4 % ID/g; the “Radioactive concentration, End region of femur” value is listed as 0.02^b % ID/g; the “Radioactive concentration, Liver” value is 0.02 ± 0.011 % ID/g; the “Radioactive concentration, Spine” value is given as 0.01^b % ID/g. For the same molecule, in series [1] (2 hrs), the “Radioactive concentration, Administration site” value is 4404 ± 1806.8 % ID/g; the “Radioactive concentration, End region of femur” value came to 0.11 ± 0.104 % ID/g; the “Radioactive concentration, Liver” value is 0.04 ± 0.024 % ID/g; the “Radioactive concentration, Spine” value is given as 0.03 ± 0.030 % ID/g. In addition, in series [1] (2 hrs), the “Radioactive concentration, Spleen” value was determined as 0.03 ± 0.009 % ID/g. In series [1] (6 hrs), the “Radioactive concentration, Administration site” value was determined as 2197 ± 1334.3 % ID/g; the “Radioactive concentration, End region of femur” value is reported as 0.32 ± 0.068 % ID/g; the “Radioactive concentration, Kidney” value is reported as 0.03 ± 0.008 % ID/g; the “Radioactive concentration, Liver” value was 0.12 ± 0.022 % ID/g. Further, in series [1] (6 hrs), the “Radioactive concentration, Spine” value came out at 0.07 ± 0.010 % ID/g and the “Radioactive concentration, Spleen” value is recorded as 0.07 ± 0.006 % ID/g. For the same molecule, in series [1] (24 hrs), the “Radioactive concentration, Administration site” value is given as 1067 ± 941.8 % ID/g; the “Radioactive concentration, End region of femur” value is listed as 1.74 ± 0.424 % ID/g; the “Radioactive concentration, Kidney” value was 0.07 ± 0.025 % ID/g; the “Radioactive concentration, Liver” value worked out at 0.18 ± 0.150 % ID/g. In series [1] (24 hrs), the “Radioactive concentration, Spine” value is given as 0.45 ± 0.123 % ID/g and the “Radioactive concentration, Spleen” value turned out to be 0.11 ± 0.073 % ID/g. Moreover, the “Radioactivity retained in the administration site, the prostate gland” value in series [1] (listed as 166Ho(NO3)3.5H2O solution) is reported as “about 30%”. Besides, the “Radioactivity retained in the administration site, the prostate gland” value in series [1] (listed as radioisotope solution not containing chitosan) is 30%. Further, the “Radioactive concentration in liver, spleen, kidney and end region of the femur, fold higher than in the complex solution group” value in series [1] (after 6 and 24 hrs) fell in the range of 2 to 4 fold. Further, the “Radioactive concentration in the administration site, fold lower than in the complex solution group” value in series [1] (after 6 hrs) is recorded as 2 fold. Further, the “Radioactive concentration in the administration site, fold lower than in the complex solution group” value in series [1] (after 24 hrs) is 3 fold.
With “Holmium-165 (^165Ho)-chitosan complex [Non-radioactive complex, reference compound]”, the values for the Tumor weight in series [2] (2 wks after administration), in series [2] (4 wks after administration) and in series [5] (four weeks after administration) were 1.93 ± 0.29 g, 32.62 ± 2.32 g and 18.1 ± 4.37 g, respectively. Moreover, the “Change in tumor volume” value in series [3] (last day of the test) is reported as “greatly increased”. The entries for the “Tumor volume after injection” value in series [3] (1 wk) and in series [3] (2 wks) were 1.24 ± 0.61 cm^3 and 5.03 ± 1.51 cm^3, respectively. For the same molecule, the “Tumor growth inhibition rate” value in series [3] was 23.1%; in series [3] (setting [6]), “about 20%”; in series [5], 20.4%; in series [5] (setting [6]) it was “about 20%”. Moreover, the “Histopathological changes in organs other than the tumor tissue (heart, lung, liver, kidney, spleen, testes, epididymis, seminal vesicle, bladder, rectum)” value in series [4] is reported as “no abnormalities in adjacent organs were found”.
